{
  "source": "patent US8357659B2",
  "about": "“Method of treating pain or itching with APETx2 peptide toxin” (priority 2008, dated 2013)",
  "key": {"[1]": {"target": "T1, ASIC3 (rat clone) in F-11 cells (Rattus norvegicus, UniProt O35240)", "T1 construct": "expressed in transfected cells; host or cells: F-11 cells, vector pCI-ASIC3r co-transfected with pIRES2-EGFP", "T1 sequence (O35240 1-533)": "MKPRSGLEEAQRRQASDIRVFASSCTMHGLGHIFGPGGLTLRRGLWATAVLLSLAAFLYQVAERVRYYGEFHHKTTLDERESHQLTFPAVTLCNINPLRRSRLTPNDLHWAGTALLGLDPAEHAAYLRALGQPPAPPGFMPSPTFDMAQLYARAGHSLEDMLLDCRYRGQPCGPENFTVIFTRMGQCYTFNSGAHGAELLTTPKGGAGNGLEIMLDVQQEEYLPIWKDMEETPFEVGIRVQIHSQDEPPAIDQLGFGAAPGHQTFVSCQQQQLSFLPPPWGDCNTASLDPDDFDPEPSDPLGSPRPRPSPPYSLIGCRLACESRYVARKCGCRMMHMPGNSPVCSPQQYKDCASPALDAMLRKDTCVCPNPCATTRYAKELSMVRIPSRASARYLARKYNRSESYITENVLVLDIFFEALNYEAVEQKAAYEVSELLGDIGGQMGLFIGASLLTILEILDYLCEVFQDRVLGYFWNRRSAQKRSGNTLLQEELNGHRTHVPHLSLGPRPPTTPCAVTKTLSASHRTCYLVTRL", "assay": "Whole cell patch clamp of recombinant ASIC3 in transfected F-11 cells", "format": "cell-based", "experimental": "(§1) F-11 cells (refs. 44, 45, 46, 47]) were cultured in 5% of CO2 at a density of 50,000 cells per 35 mm Petri dish. The culture medium contained HAM F-12 medium (Invitrogen) supplemented with 15% foetal bovine serum (ICN Biomedicals), 1×HAT (sodium hypoxanthine, aminopterine and thymidine), 200 μg/ml of allo-4-hydroxy-L-proline (Sigma-Aldrich) and 1% antibiotics. One day after seeding, the cells were transfected with ASIC1a or ASIC3 DNAc (rat clones) using Lipofectamine™ (Invitrogen) according to the manufacturer's instructions using the vectors pCI-ASIC1ar+pIRES2-EGFP (ratio 1:2) or pCI-ASIC3r+pIRES2-EGFP (ratio 1:10) ([ref. 36]), quoted above). For the experiments concerning the human ASIC3 clone (refer to experiments on the effects of the APETx2 toxin on the human form of the ASIC3 channel), the cells were transfected with the DNAc of human ASIC3 using the transfection agent JetPEI (Polypus Transfection) according to the manufacturer's instructions with the aid of the vector pASIC3h-IRES-EGFP. The cells were used for the patch clamp experiments (an electrophysiological method for recording ionic currents travelling through cell membranes) 2 to 4 days after transfection.\n(§2) The whole cell configuration of the patch clamp method was used ([ref. 48]) in order to measure the membrane currents (imposed voltage) or the membrane potentials (imposed current). The recordings were performed at ambient temperature using an RK-400 amplifier (Bio-Logic Science Instruments) with a 3 kHz low-pass filter (Krohn-Hite). The data were sampled at 10 kHz, digitised using a Digidata 1322A A-D/D-A converter (Axon Instruments) and recorded on a hard disk using pClamp software (version 9.2.0.11, Axon Instruments). The recording probes (1-4 MOhms) contained (in mM): 135 KCl, 2.5 Na2-ATP, 2 MgCl2, 2.1 CaCl2, 5 EGTA, 10 HEPES (pH 7.25 with KOH). Various different buffers and drugs of interest were added to the transfected cells considered individually using an internally developed microinfusion system controlled by microelectrovalves (Sirai, Italy) allowing rapid changes of solution. The control bath solution contained (in mM): 145 NaCl, 5 KCl, 2 MgCl2, 2 CaCl2, 10 HEPES (pH 7.4 with NaOH). The MES medium was used instead of the HEPES medium in order to buffer the solution at a pH ranging from 6 to 5, and the ASIC currents were induced by rapid changes of a control solution at pH 7.4 to an acid test solution using the microinfusion system. For the experiments conducted on the DRG neurons, glucose (10 mM) was added to the control bath solution. Hypertonic conditions were obtained by adding mannitol or sucrose to the external bath solutions, as indicated in the text."}, "[2]": {"system": "ASIC type current of cutaneous neurons of the spinal ganglia", "assay": "Whole cell patch clamp of native ASIC currents in cutaneous neurons of the spinal ganglia", "format": "cell-based, rat", "experimental": "The neurons of the dorsal root ganglion (spinal ganglia or DRG) innervating the skin were labelled by subcutaneous injections of 5×1 μl of Dil fluorescent dye (5% DMSO, Molecular Probes) in the dorsal side of the rats' hind paws. The dye was injected two weeks before the rats were sacrificed in order to prepare a primary culture of dorsal root ganglion.\nThe lumbar dorsal root ganglia L3-L6 of Wistar rats (8-11 weeks) were dissected bilaterally and separated enzymatically with 0.1% collagenase. The cells were subsequently plated on 35 mm Petri dishes covered with collagen and cultured at 37° C. (95% air/5% CO2) in DMEM medium containing 5% of foetal calf serum. The electrophysiological experiments were performed 1 to 8 days after seeding.\nas §2"}, "[3]": {"system": "cutaneous pain induced by moderate acidification", "assay": "Nociceptive behaviour in rats after subcutaneous injection of moderately acidic solutions", "format": "in vivo, rat", "experimental": "Adult (7-8 weeks' old) male Wistar rats (Charles River, France) were placed in plastic cages with a nyctohemeral period of 12 h (with light between 8 a.m. and 8 p.m.) and with free access to food and water. The rats were left to acclimatize for at least one week before the experiments. For the behavioural experiments, the rats were placed in a transparent observation chamber where they were acclimatized for 20-30 minutes. They were subsequently immobilised while 20 μl of saline solution (0.9% or 2% of NaCl+20 mM of HEPES, […] or 60 nM of PcTx1 toxin), was administered subcutaneously to the dorsal side of the right hind paw using a 30G needle connected to a 100 μl Hamilton syringe. The nociceptive behaviour (i.e. the number of hind leg quiverings) was recorded over a 5-minute period, starting immediately after the injection ([ref. 59])."}, "[4]": {"target": "T2, ASIC1a (rat clone) in F-11 cells (Rattus norvegicus, UniProt P55926)", "T2 construct": "expressed in transfected cells; host or cells: F-11 cells, vector pCI-ASIC1ar co-transfected with pIRES2-EGFP", "T2 sequence (P55926 1-526)": "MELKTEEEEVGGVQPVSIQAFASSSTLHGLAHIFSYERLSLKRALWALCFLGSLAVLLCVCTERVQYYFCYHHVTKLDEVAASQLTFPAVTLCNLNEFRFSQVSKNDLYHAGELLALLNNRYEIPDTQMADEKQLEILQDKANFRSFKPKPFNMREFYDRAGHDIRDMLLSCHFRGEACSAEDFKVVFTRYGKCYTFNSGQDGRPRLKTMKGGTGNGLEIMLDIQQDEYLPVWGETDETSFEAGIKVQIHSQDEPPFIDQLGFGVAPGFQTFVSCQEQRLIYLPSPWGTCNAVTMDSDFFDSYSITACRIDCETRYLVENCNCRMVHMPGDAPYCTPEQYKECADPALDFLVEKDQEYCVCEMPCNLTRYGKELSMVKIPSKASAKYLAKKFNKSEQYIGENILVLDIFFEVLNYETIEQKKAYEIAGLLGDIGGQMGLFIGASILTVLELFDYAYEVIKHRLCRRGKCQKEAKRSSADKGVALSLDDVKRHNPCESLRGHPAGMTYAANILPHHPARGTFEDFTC", "assay": "Whole cell patch clamp of recombinant ASIC1a in transfected F-11 cells", "format": "cell-based", "experimental": "as §1\nThe whole cell configuration of the patch clamp method was used ([ref. 48]) in order to measure the membrane currents (imposed voltage) or the membrane potentials (imposed current). The recordings were performed at ambient temperature using an RK-400 amplifier (Bio-Logic Science Instruments) with a 3 kHz low-pass filter (Krohn-Hite). The data were sampled at 10 kHz, digitised using a Digidata 1322A A-D/D-A converter (Axon Instruments) and recorded on a hard disk using pClamp software (version 9.2.0.11, Axon Instruments). The recording probes (1-4 MOhms) contained (in mM): 135 KCl, 2.5 Na2-ATP, 2 MgCl2, 2.1 CaCl2, 5 EGTA, 10 HEPES (pH 7.25 with KOH). Various different buffers and drugs of interest were added to the transfected cells considered individually using an internally developed microinfusion system controlled by microelectrovalves (Sirai, Italy) allowing rapid changes of solution. […]"}, "[5]": {"system": "ASIC3 messenger RNA", "assay": "Quantitative RT-PCR of channel messenger RNA levels in spinal ganglia after intrathecal iRNA", "format": "in vivo, rat", "settings": "2 μg per injection, one per day for 3 days, other ASIC and TRPV1 channels not reduced", "excerpt": "(§3) ASIC3 channel-specific iRNA (no. 1121; CTACACGCTATGCCAAGGA, SEQ ID NO: 1) and its control (no. 1121S; GCTCACACTACGCAGAGAT, SEQ ID NO: 2) were designed in the laboratory and were synthesised by MWG Biotech Company (Germany). The ASIC3-specific iRNA was validated by quantification of the messenger RNA levels by quantitative RT-PCR for each ASIC channel and for the TRPV1 channel, following intrathecal injections into the lumbar region of the spinal cord of rats, at a rate of one injection per day for 3 consecutive days, before the animal was sacrificed. The same procedure was followed before induction of inflammation by CFA. Each injection was 10 μl in volume, containing 2 μg of iRNA mixed with the transfection agent i-Fect (Neuromics) at a ratio of 1 to 4."}, "[6]": {"system": "thermal hyperalgesia induced by CFA", "assay": "Inflammation-induced (CFA) thermal hyperalgesia in rats, hotplate at 50° C.", "format": "in vivo, rat", "experimental": "Sensitivity to heat of adult male Wistar rats (Charles River, France) was tested by measuring the time taken by the animal to retract one of its hind paws when placed on a hotplate at 50° C. (Bioseb, France), before and after induction of inflammation by subcutaneous injection of a solution of Freund's complete adjuvant (CFA, Sigma-Aldrich, France). The rats were acclimatised to the experimentation room for at least 30 minutes and each measurement was performed in duplicate. An initial measurement was performed before induction of inflammation. The rats were subsequently anaesthetised (isofluorane) while 150 μl of CFA diluted 1:1 with a saline solution (0.9% NaCl) containing either toxins (PcTx1 or APETx2, 120 nM and 20 μM, respectively) or the vehicle was injected (26G needle mounted on a 1 ml syringe) subcutaneously into the plantar side of one of the hind paws. The time taken by the animal to lift the injected hind paw was subsequently measured at 50° C., 2, 4 and 24 hours after the injection of CFA.\nas §3"}},
  "data": [
    {"compound": "CCCCC/C=C\\C/C=C\\C/C=C\\C/C=C\\CCCC(=O)O", "note": "[arachidonic acid]", "values": [
      {"measurement": "non-inactivating ASIC3 window current", "setting": "[1]; FIG. 4D", "value": "markedly increased"},
      {"measurement": "increase of the ASIC3 current", "setting": "[1]; activated by pH 6.6, n=7, P=0.45", "value": "40±22", "unit": "%"},
      {"measurement": "increase of the ASIC3 current", "setting": "[1]; activated by pH 7.0, n=9", "value": "493±84", "unit": "%"},
      {"measurement": "increase of the ASIC3 current", "setting": "[1]; activated by pH 7.2, n=23", "value": "547±103", "unit": "%"},
      {"measurement": "excitability of the cutaneous neurons (triggering of the action potential)", "setting": "[2]; FIG. 2C", "value": "increased excitability"},
      {"measurement": "increase of the ASIC current induced by native pH 7.0", "setting": "[2]; pH 7.0, n=6, P=0.06", "value": "172±65", "unit": "%"},
      {"measurement": "quivering score", "setting": "[3]; co-injected 2% NaCl (~600 mosmol.kg^−1) and 10 mM AA at pH 6.9, subcutaneous, hind paw, 5-minute period, n=25, versus 11.1±2.54 at pH 6.9 alone", "value": "20.42±2.53"},
      {"measurement": "increase of the ASIC1a current", "setting": "[4]; pH 6.6, n=2", "value": "21±15", "unit": "%"},
      {"measurement": "increase of the ASIC1a current", "setting": "[4]; pH 7.0, n=5, P=0.06", "value": "183±54", "unit": "%"},
      {"measurement": "effect on ASIC1a current", "setting": "[4]; pH 7.2", "value": "does not have any effect"}
    ]},
    {"compound": "OC[C@@H](O)[C@@H](O)[C@H](O)[C@H](O)CO", "note": "[mannitol]", "values": [
      {"measurement": "increase of the ASIC3 current by hyperosmolarity", "setting": "[1]; 600 mosmol.kg^−1 with mannitol, activated by pH 7.2, n=20", "value": "148±20", "unit": "%"}
    ]},
    {"compound": "ASIC3 channel-specific iRNA: interfering RNA directed against ASIC3 messenger RNA, CTACACGCTATGCCAAGGA, SEQ ID NO: 1 (listed as DNA, chemistry not given here)", "values": [
      {"measurement": "expression of the ASIC3 channels in the sensory neurons", "setting": "[5]", "value": "marked and exclusive reduction"},
      {"measurement": "development of inflammatory thermal hyperalgesia", "setting": "[6]; intrathecal iRNA during the 3 days preceding CFA, versus random sequence control iRNA", "value": "do not develop any inflammatory thermal hyperalgesia"}
    ]},
    {"compound": "PcTx1: animal peptide toxin, selective inhibitor of the homomer channels ASIC1a (EDCIPKWKGCVNRHGDCCEGLECWKRRRSFEVCVPKTPKT)", "values": [
      {"measurement": "development of thermal hyperalgesia", "setting": "[6]; toxin concomitantly injected with CFA (APETx2 20 μM, PcTx1 120 nM), four hours after CFA", "value": "devoid of any significant effect"},
      {"measurement": "inhibition by the toxin of the ASIC type current induced by pH 6.6", "setting": "[2]; in 4.7% (2/43) of neurons, ASIC1a homomer current", "value": "> 90", "unit": "%"},
      {"measurement": "inhibition by the toxin of the ASIC type current induced by pH 6.6", "setting": "[2]; in 23.3% (10/43) of neurons, ASIC3 type currents", "value": "< 10", "unit": "%"},
      {"measurement": "behaviour in response to acid pain with inflammatory signals", "setting": "[3]; pH 6.9 + 2% NaCl + AA, 10 μM APETx2 or 60 nM PcTx1 in injected solution, FIG. 5A", "value": "devoid of any significant effect"}
    ]}
  ]
}
